# Measured values reported in patent publication US8039505B2, “Compounds for modulating T-cells” (University of Utah Research Foundation, priority 2007, dated 2011).
# “Also recorded” adds a separate entry of the source.
# Legend:
# [1] = system: T cells from the thymus of lck::eGFP transgenic zebrafish; experiment: Screen for T cell ablation in lck::eGFP transgenic zebrafish larvae; assay type: in vivo
# Procedure: FIG. 4 is a schematic of the experimental set-up of drug screen using DIVERSet small molecule library and lck-GFP transgenic zebrafish. Beginning at the top of the figure, three day 6 pf transgenic larvae are arrayed in 300 μL of E3 embryos water into each of the 96 wells of a round bottom tissue culture plate (except G1, H1, G12, H12). Controls are added in triplicate: DMSO (A1-C1), E3 (D1-F1), dexamethasone 25 μM (A12-C12), and methanol (D12-F12). Then, five compounds from the DIVERSet library are added to each well at a final concentration of 5 μM. Plates are incubated at […] for 48 hours, and are inspected by fluorescence microscopy at 24 and 48 hours. […] Compounds from wells identified as active are tested individually in triplicates. One of the five compounds that is active in all three wells is identified and is worked up further (left side).
# To extend the versatility of the system, a transgenic line of zebrafish was generated; in this line all T cells are tagged with green fluorescent protein (GFP). GFP is driven by the T cell specific p56^lck promoter (Langenau et al., Proc Natl Acad Sci USA 101:7369-7374, 2004).
# Based on the above observation that zebrafish T cells can be killed by the small molecule dexamethasone (MW 392) (Langenau et al., Proc Natl Acad Sci USA 101:7369-7374, 2004) a screen for novel compounds with a similar T cell ablative profile was performed. […]
# [2] = system: cell cycle in zebrafish embryos; experiment: Cell cycle profiles in zebrafish embryos (propidium iodide, flow cytometry); assay type: in vivo; conditions: zebrafish embryos incubated from 4 hours post fertilization overnight, DNA content by flow cytometry
# Procedure: FIG. 2 is a group of cell cycle profiles of active compounds tested in 24 hour zebrafish embryos. Specifically, embryos incubated with E3 fishwater (panel A), hydroxyurea (panel B), compound C4 (panel C), and compound C3 (panel D) are shown. After overnight incubation, single cell solution of embryos was prepared and incubated with propidium iodide. Samples were then subjected to flow cytometry to determine DNA content (X axis). Small arrowheads below the X-axis are placed beneath the diploid (G1) n=2 peak, and the tetraploid (G2/M) n=4 peaks. Cells between these two peaks are in S phase. Cells to the left of the G1 peak (sub G1 peak) have lost chromosomes (n<2), and are presumably dying (indicated as % debris in the right hand legend of each panel). Relative numbers of cells (Y-axis) in the different phases of the cell cycle are given on the right side of each panel.
# All of these compounds were tested for effects on the cell cycle in zebrafish embryos. Zebrafish embryos were incubated at 4 hours post fertilization with compounds or controls. After overnight incubation in compounds, single cell solution of embryos was prepared and incubated with propidium iodide. Samples were then subjected to flow cytometry to determine DNA content. […] Examples are depicted in FIG. 2.
# In FIG. 2, embryos incubated with (A) E3 fishwater, (B) hydroxyurea, (C) compound C4, and (D) C3 are shown. Diploid (G1, n=2) and tetraploid (G2/M, n=4) peaks are identified on the X-axis. Small arrowheads below the X-axis are placed beneath the dipoid (G1) n=2 peak, and the tetraploid (G2/M) n=4 peaks. Cells between these two peaks are in S phase. Cells to the left of the G1 peak (sub G1 peak) have lost chromosomes (n<2) and are presumably dying (indicated as % debris in the right hand legend of each panel). Relative numbers of cells (Y axis) in the different phases of the cell cycle are given on the right side of each panel.
# human T-ALL line Jurkat = experiment: MTT cell viability, Jurkat; assay type: cell-based; conditions: 48 hours
# Procedure: (§1) FIG. 3 is a graph showing viability of human T-ALL lines incubated with individual compounds. Specifically, two human ALL lines (B-ALL: RS4; 11 and T-ALL: Jurkat) were incubated on day 0 with serum or with 2.5 μM of the indicated compounds (except for aphidicolin 1 μM and cyclosporine 1.5 μM). 48 hours later, cells were tested for viability by MTT test. Results from the mean of 3 to 4 experiments carried out in triplicate (individual dots) and the mean of all experiments (horizontal bar) are indicated. Results are shown for compounds without a cell cycle effect (B). Viability of untreated cells was arbitrarily set at 1.0.
# (§2) Cell culture experiments: Cells were incubated at 37° C. in 75 mL flasks in RPMI containing 10% FBS, 5 mL Penicillin/Streptomycin (100×) in a total volume of […]. Cells were counted using a hemocytometer, and 25,000 cells were plated in each well of a 96-well plate. Compounds and controls were added and cells were harvested after a 48 hr incubation period.
# (§3) To assess effects of compounds, cell viability was measured. […] After crystal solubilization with DMSO a blue color (that is proportional to the amount of crystal formed) can be measured. […] Final optical density (OD) obtained from formazan formation was calculated OD=L1-L2 (background). […]
# [3] = system: human B-ALL line RS 4; 11; experiment: MTT cell viability, RS4;11; assay type: cell-based; conditions: RS4;11, 2.5 μM, 48 hours
# Procedure: as §1, §2, §3
# [4] = 14-day twice daily gavage in healthy CD-1 male mice; assay type: in vivo; conditions: gavage 50, 15 and 5 mg/kg twice per day, 14 days
# Procedure: Healthy CD-1 male mice were also gavage-fed with compound 3 at concentrations of 50 mg/kg, 15 mg/kg and 5 mg/kg twice per day. […] Hematological, biochemical, immunological and pathological specimen are currently being evaluated.
structure (smiles),measurement,setting,value
"C(=NNc1cccc2cccnc12)c1c[nH]c2ccccc12 [Compound C3, 1H-indole-3-carbaldehyde quinolin-8-ylhydrazone]",Activity in vivo (active concentration),[1],3 µM
same,Effect on the cell cycle,[2],lack of cell cycle effects
same,Effect on the cell cycle,[2]; listed as 3,did not have any appreciable effect on the cell cycle; also recorded: does not affect the cell cycle
same,"Response of T cell leukemia line (viability, MTT)","human T-ALL line Jurkat; 2.5 μM, FIG. 3",responded similarly
same,Effective concentration killing Jurkat in vitro,human T-ALL line Jurkat; MTT,2.5 µM
same,"Effect on B-ALL line (viability, MTT)",[3],"neither the kidney cell line, nor the B-ALL were affected"
same,Adverse effects,[4],No adverse effects were observed
